Tested on: 898857-211-R-J1-PDC complex spheroids, growth % test/control
Assay: Anticancer human tumor 898857-211-R-J1-PDC patient-derived melanoma cell line growth inhibition [RAS]
Settings: for IC50: curve of first compound; for viability, T/C: stronger effect = lower value
Outline: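 Agents were tested in combination matrices in half-log decrements from a top concentration at or near clinical Cmax (10 microM if undetermined). Targets were multi-cell spheroids of tumour lines plus HUVEC and MSC stromal cells.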

[1] = second compound 0.00316 µM, first compound 0.0316 µM
[2] = second compound 0.00316 µM, first compound 0.1 µM
[3] = second compound 0.00316 µM, first compound 0.316 µM
[4] = second compound 0.00316 µM, first compound 1 µM
[5] = second compound 0.00316 µM, first compound 3.16 µM
[6] = second compound 0.00316 µM, first compound 10 µM
[7] = second compound 0.01 µM, first compound 0.0316 µM
[8] = second compound 0.01 µM, first compound 0.1 µM
[9] = second compound 0.01 µM, first compound 0.316 µM
[10] = second compound 0.01 µM, first compound 1 µM
[11] = second compound 0.01 µM, first compound 3.16 µM
[12] = second compound 0.01 µM, first compound 10 µM
[13] = second compound 0.0316 µM, first compound 0.0316 µM
[14] = second compound 0.0316 µM, first compound 0.1 µM
[15] = second compound 0.0316 µM, first compound 0.316 µM
[16] = second compound 0.0316 µM, first compound 1 µM
[17] = second compound 0.0316 µM, first compound 3.16 µM
[18] = second compound 0.0316 µM, first compound 10 µM
[19] = second compound 0.1 µM, first compound 0.0316 µM
[20] = second compound 0.1 µM, first compound 0.1 µM
[21] = second compound 0.1 µM, first compound 0.316 µM
[22] = second compound 0.1 µM, first compound 1 µM
[23] = second compound 0.1 µM, first compound 3.16 µM
[24] = second compound 0.1 µM, first compound 10 µM
[25] = second compound 0.316 µM, first compound 0.0316 µM
[26] = second compound 0.316 µM, first compound 0.1 µM
[27] = second compound 0.316 µM, first compound 0.316 µM
[28] = second compound 0.316 µM, first compound 1 µM
[29] = second compound 0.316 µM, first compound 3.16 µM
[30] = second compound 0.316 µM, first compound 10 µM
[31] = second compound 1 µM, first compound 0.0316 µM
[32] = second compound 1 µM, first compound 0.1 µM
[33] = second compound 1 µM, first compound 0.316 µM
[34] = second compound 1 µM, first compound 1 µM
[35] = second compound 1 µM, first compound 3.16 µM
[36] = second compound 1 µM, first compound 10 µM
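Further: spheroids exposed to compound for seven days before readout.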
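Wherever viability, T/C is given: 100% = DMSO vehicle control wells.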

CC(=O)OC12COC1CC(O)C1(C)C(=O)C(O)C3=C(C)C(OC(=O)C(O)C(NC(=O)OC(C)(C)C)c4ccccc4)CC(O)(C(OC(=O)c4ccccc4)C21)C3(C)C (stereo unspecified) + CCn1c(-c2cc(N3CCN(C)CC3)cnc2C(C)OC)c2c3cc(ccc31)-c1csc(n1)CC(NC(=O)C1CC1C)C(=O)N1CCCC(N1)C(=O)OCC(C)(C)C2 was tested, and the IC50 (second compound 0.000949 µM) was under 31.6 nM, the IC50 (second compound 0.003 µM) was under 31.6 nM and the IC50 (second compound 0.00949 µM) was under 31.6 nM. For the same compound, the IC50 (second compound 0.03 µM) was under 31.6 nM, the IC50 (second compound 0.0949 µM) was under 31.6 nM and the IC50 (second compound 0.3 µM) was under 31.6 nM. It also gave a viability, T/C (second compound 0.000949 µM, first compound 0.0316 µM) of 11.2%, a viability, T/C (second compound 0.000949 µM, first compound 0.1 µM) of 9.4% and a viability, T/C (second compound 0.000949 µM, first compound 0.316 µM) of 9.05%. The viability, T/C (second compound 0.000949 µM, first compound 1 µM) was 13.3%, the viability, T/C (second compound 0.000949 µM, first compound 3.16 µM) was 13.9% and the viability, T/C (second compound 0.000949 µM, first compound 10 µM) was 14.7%. For the same compound, the viability, T/C (second compound 0.003 µM, first compound 0.0316 µM) was 11.4%, the viability, T/C (second compound 0.003 µM, first compound 0.1 µM) was 12.9% and the viability, T/C (second compound 0.003 µM, first compound 0.316 µM) was 9.53%. The viability, T/C (second compound 0.003 µM, first compound 1 µM) was 12.5%, the viability, T/C (second compound 0.003 µM, first compound 3.16 µM) was 12.7% and the viability, T/C (second compound 0.003 µM, first compound 10 µM) was 12.8%. It also gave a viability, T/C (second compound 0.00949 µM, first compound 0.0316 µM) of 10.9%, a viability, T/C (second compound 0.00949 µM, first compound 0.1 µM) of 11.4% and a viability, T/C (second compound 0.00949 µM, first compound 0.316 µM) of 13%. It also gave a viability, T/C (second compound 0.00949 µM, first compound 1 µM) of 12.4%, a viability, T/C (second compound 0.00949 µM, first compound 3.16 µM) of 14.6% and a viability, T/C (second compound 0.00949 µM, first compound 10 µM) of 14.2%. It also gave a viability, T/C (second compound 0.03 µM, first compound 0.0316 µM) of 10.9%, a viability, T/C (second compound 0.03 µM, first compound 0.1 µM) of 10.7% and a viability, T/C (second compound 0.03 µM, first compound 0.316 µM) of 13.3%. It also gave a viability, T/C (second compound 0.03 µM, first compound 1 µM) of 12.9%, a viability, T/C (second compound 0.03 µM, first compound 3.16 µM) of 15.6% and a viability, T/C (second compound 0.03 µM, first compound 10 µM) of 14.6%. For the same compound, the viability, T/C (second compound 0.0949 µM, first compound 0.0316 µM) was 12.1%, the viability, T/C (second compound 0.0949 µM, first compound 0.1 µM) was 12.2% and the viability, T/C (second compound 0.0949 µM, first compound 0.316 µM) was 12.3%. It also gave a viability, T/C (second compound 0.0949 µM, first compound 1 µM) of 14.4%, a viability, T/C (second compound 0.0949 µM, first compound 3.16 µM) of 14.4% and a viability, T/C (second compound 0.0949 µM, first compound 10 µM) of 15.4%. For the same compound, the viability, T/C (second compound 0.3 µM, first compound 0.0316 µM) was 12.9%, the viability, T/C (second compound 0.3 µM, first compound 0.1 µM) was 11.9% and the viability, T/C (second compound 0.3 µM, first compound 0.316 µM) was 11.8%. It also gave a viability, T/C (second compound 0.3 µM, first compound 1 µM) of 15.8%, a viability, T/C (second compound 0.3 µM, first compound 3.16 µM) of 14.9% and a viability, T/C (second compound 0.3 µM, first compound 10 µM) of 18.7%.

CC1(O)CCCC1n1c(=O)c(C(F)F)cc2cnc(NC3CCN(S(C)(=O)=O)CC3)nc21 (stereo unspecified) + C=CC(=O)N1CCN(c2nc(OCC3CCCN3C)nc3c(F)c(-c4nc(N)cc(C)c4C(F)(F)F)c(Cl)cc23)C(C)C1 showed an IC50 (second compound 0.00316 µM) of 228 nM, an IC50 (second compound 0.01 µM) of 300 nM and an IC50 (second compound 0.0316 µM) of 252 nM. The IC50 (second compound 0.1 µM) was 286 nM, the IC50 (second compound 0.316 µM) was 315 nM and the IC50 (second compound 1 µM) was 230 nM. The viability, T/C [1] was 103%, the viability, T/C [2] was 57.7% and the viability, T/C [3] was 45.6%. The viability, T/C [4] was 43.5%, the viability, T/C [5] was 47.1% and the viability, T/C [6] was 19.7%. For the same compound, the viability, T/C [7] was 75.3%, the viability, T/C [8] was 61% and the viability, T/C [9] was 39%. The viability, T/C [10] was 44.9%, the viability, T/C [11] was 39.7% and the viability, T/C [12] was 17.4%. For the same compound, the viability, T/C [13] was 87.6%, the viability, T/C [14] was 57.1% and the viability, T/C [15] was 42.4%. It also gave a viability, T/C [16] of 45.6%, a viability, T/C [17] of 43.7% and a viability, T/C [18] of 19.3%. The viability, T/C [19] was 92.1%, the viability, T/C [20] was 55.5% and the viability, T/C [21] was 47.9%. It also gave a viability, T/C [22] of 46.1%, a viability, T/C [23] of 47.7% and a viability, T/C [24] of 18.6%. It also gave a viability, T/C [25] of 109%, a viability, T/C [26] of 67% and a viability, T/C [27] of 46%. The viability, T/C [28] was 44.7%, the viability, T/C [29] was 45.2% and the viability, T/C [30] was 17.5%. The viability, T/C [31] was 115%, the viability, T/C [32] was 59.5% and the viability, T/C [33] was 46.3%. It also gave a viability, T/C [34] of 36%, a viability, T/C [35] of 42.8% and a viability, T/C [36] of 10.9%.

CCC(CC)c1cc(NC2CCC(N)C2)n2nccc2n1 (stereo unspecified) + C=CC(=O)N1CCN(c2nc(OCC3CCCN3C)nc3c(F)c(-c4nc(N)cc(C)c4C(F)(F)F)c(Cl)cc23)C(C)C1 gave an IC50 (second compound 0.00316 µM) of 806 nM, an IC50 (second compound 0.01 µM) of 851 nM and an IC50 (second compound 0.0316 µM) of 1130 nM. It also gave an IC50 (second compound 0.1 µM) of 1220 nM, an IC50 (second compound 0.316 µM) of 1300 nM and an IC50 (second compound 1 µM) of 1160 nM. The viability, T/C [1] was 119%, the viability, T/C [2] was 97.5% and the viability, T/C [3] was 81.5%. The viability, T/C [4] was 49.1%, the viability, T/C [5] was 1.15% and the viability, T/C [6] was 0.2%. It also gave a viability, T/C [7] of 114%, a viability, T/C [8] of 97.8% and a viability, T/C [9] of 81.7%. It also gave a viability, T/C [10] of 51%, a viability, T/C [11] of 0.97% and a viability, T/C [12] of 0.25%. For the same compound, the viability, T/C [13] was 104%, the viability, T/C [14] was 104% and the viability, T/C [15] was 102%. For the same compound, the viability, T/C [16] was 56%, the viability, T/C [17] was 1.12% and the viability, T/C [18] was 0.25%. It also gave a viability, T/C [19] of 95.5%, a viability, T/C [20] of 110% and a viability, T/C [21] of 101%. It also gave a viability, T/C [22] of 60%, a viability, T/C [23] of 1.01% and a viability, T/C [24] of 0.21%. The viability, T/C [25] was 123%, the viability, T/C [26] was 119% and the viability, T/C [27] was 104%. It also gave a viability, T/C [28] of 66.3%, a viability, T/C [29] of 1.11% and a viability, T/C [30] of 0.26%. For the same compound, the viability, T/C [31] was 120%, the viability, T/C [32] was 117% and the viability, T/C [33] was 101%. For the same compound, the viability, T/C [34] was 59.7%, the viability, T/C [35] was 0.94% and the viability, T/C [36] was 0.24%.
